Source: US7618961B2, “Inhibitors of 11-beta-hydroxy steroid dehydrogenase type 1” (Biovitrum AB, priority 2000, dated 2009)

Target: T1, human 11-β-hydroxysteroid dehydrogenase type-1 enzyme (11-β-HSD1) (Homo sapiens, UniProt P28845)
T1 construct: made in house; host or cells: Pichia pastoris
Test: Scintillation proximity assay: human 11-β-HSD1 enzyme assay
Assay type: biochemical
Conditions: Ki calculated from IC50 (Cheng Prushoff)
Description: [1, 2(n)-^3H]-cortisone was purchased from Amersham Pharmacia Biotech. Anti-cortisol monoclonal mouse antibody, clone 6D6.7 was obtained from Immunotech and Scintillation proximity assay (SPA) beads coated with monoclonal antimouse antibodies were from Amersham Pharmacia Biotech. NADPH, tetrasodium salt was from Calbiochem and glucose-6-phosphate (G-6-P) was supplied by Sigma. The human 11-β-hydroxysteroid dehydrogenase type-1 enzyme (11-β-HSD1) was expressed in Pichia pastoris. 18-β-glycyrrhetinic acid (GA) was obtained from Sigma. The serial dilutions of the compounds were performed on a Tecan Genesis RSP 150.
Compounds to be tested were dissolved in DMSO (1 mM) and diluted in 50 mM Tris-HCl, pH 7.2 containing 1 mM EDTA.
The multiplication of plates was done on a WallacQuadra. The amount of the product [^3H]-cortisol, bound to the beads was determined in a Packard, Top Count microplate liquid scintillation counter.
The 11-β-HSD1 enzyme assay was carried out in 96 well microtiter plates (Packard, Optiplate) in a total well volume of 220 μL and contained 30 mM Tris-HCl, pH 7.2 with 1 mM EDTA, a substrate mixture tritiated Cortisone/NADPH (175 nM/181 μM), G-6-P (1 mM) and inhibitors in serial dilutions (9 to 0.15 μM). Reactions were initiated by the addition of human 11-β-HSD1, either as Pichia pastoris cell homogenate or microsomes prepared from Pichia pastoris (the final amount of enzyme used was varied between 0.057 to 0.11 mg/mL). Following mixing, the plates were shaken for 30 to 45 minutes at room temperature. The reactions were terminated with 10 μL 1 mM GA stop solution. Monoclonal mouse antibody was then added (10 μL of 4 μM) followed by 100 μL of SPA beads (suspended according to the manufacturers instructions). Appropriate controls were set up by omitting the 11-β-HSD1 to obtain the non-specific binding (NSB) value.
The plates were covered with plastic film and incubated on a shaker for 30 minutes, at room temperature, before counting. The amount of [^3H]-cortisol, bound to the beads was determined in a microplate liquid scintillation counter.
The calculation of the Ki values for the inhibitors was performed by use of Activity Base. The Ki value is calculated from IC50 and the Km value is calculated using the Cheng Prushoff equation (with reversible inhibition that follows the Michaelis-Menten equation): […] [Cheng, Y. C.; Prushoff, W. H. Biochem. Pharmacol. 1973, 22, 3099-3108]. The IC50 is measured experimentally in an assay wherein the decrease of the turnover of cortisone to cortisol is dependent on the inhibition potential of each substance. The Ki values of the compounds of the present invention for the 11-β-HSD1 enzyme lie typically between about 10 nM and about 10 μM. Illustrative of the invention, the following Ki values have been determined in the human 11-β-HSD1 enzyme assay (see Table 1): […]

T1 sequence (P28845 whole entry): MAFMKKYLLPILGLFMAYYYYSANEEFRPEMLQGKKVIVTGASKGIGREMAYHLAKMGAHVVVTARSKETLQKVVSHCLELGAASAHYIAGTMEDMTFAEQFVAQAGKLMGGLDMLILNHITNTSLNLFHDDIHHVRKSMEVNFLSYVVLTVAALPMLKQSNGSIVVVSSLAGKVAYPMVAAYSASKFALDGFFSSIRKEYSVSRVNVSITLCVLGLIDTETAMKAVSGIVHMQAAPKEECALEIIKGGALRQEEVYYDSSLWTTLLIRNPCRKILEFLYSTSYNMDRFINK

| Compound | Ki [nM] |
| --- | --- |
| O=C(Cc1csc(NS(=O)(=O)c2ccc(-c3ccccc3)cc2)n1)N1CCOCC1 [Example 151A, N-{4-[2-(4-morpholinyl)-2-oxoethyl]-1,3-thiazol-2-yl}[1,1′-biphenyl]-4-sulfonamide] | 21 |
| Cc1c(Cl)cccc1S(=O)(=O)Nc1nc(CCO)cs1 [Example 181A, 3-Chloro-N-[4-(2-hydroxyethyl)-1,3-thiazol-2-yl]-2-methylbenzenesulfonamide] | 53 |
| O=C(Cc1csc(NS(=O)(=O)c2c(Cl)cc(Cl)cc2Cl)n1)N1CCOCC1 [Example 149A, 2,4,6-Trichloro-N-{4-[2-(4-morpholinyl)-2-oxoethyl]-1,3-thiazol-2-yl}benzenesulfonamide] | 51 |
| Cc1c(Cl)cccc1S(=O)(=O)Nc1nc(CCOc2cccnc2)cs1 [Example 189A, 3-Chloro-2-methyl-N-{4-[2-(3-pyridinyloxy)ethyl]-1,3-thiazol-2-yl}benzenesulfonamide] | 299 |
| Cc1c(Cl)cccc1S(=O)(=O)Nc1nc(CCN2CCOCC2)cs1.Cl [Example 204A, 3-Chloro-2-methyl-N-{4-[2-(4-morpholinyl)ethyl]-1,3thiazol-2-yl}benzenesulfonamide hydrochloride] | 91 |
| CCCC(=O)Cc1csc(NS(=O)(=O)c2cccc(Cl)c2C)n1 [Example 179A, 3-Chloro-2-methyl-N-[4-(2-oxopentyl)-1,3-thiazol-2-yl]benzenesulfonamide] | 14 |
| CCOC(=O)Cc1csc(NS(=O)(=O)c2cc(C)c(Cl)cc2Cl)n1 [Example 1A, Ethyl (2-{[(2,4-dichloro-5-methylphenyl)sulfonyl]amino}-1,3-thiazol-4-yl)acetate] | 32 |

System: not given
Test: not given
Conditions: not given

| Compound | melting point [°C] |
| --- | --- |
| Cc1c(Cl)cccc1S(=O)(=O)Nc1nc(CCN2CCOCC2)cs1.Cl [Example 204A, 3-Chloro-2-methyl-N-{4-[2-(4-morpholinyl)ethyl]-1,3thiazol-2-yl}benzenesulfonamide hydrochloride] | 197 to 198 |
